In patent US9845482B2, “Compositions and methods for enhancing bioenergetic status in female germ cells” (The General Hospital Corporation, priority 2011, dated 2017):

Key:
[1] = tested on: aged female mice (C57BL/6); experiment: Dietary supplementation of aged female mice: oocyte yield, maturation and quality after superovulation; format: in vivo; conditions: for percentage of mature, metaphase II oocytes retrieved following superovulation / quality of oocytes in aged mice: compared to age appropriate controls (Hist 12 M); for oocyte yield: diet for 3 months from 8.5 months of age, apigenin 0.5 g/kg, luteolin 0.5 g/kg, SRT-1720 2 g/kg, superovulation
Source text: Yield, maturational status and post-fertilization developmental competency of oocytes obtained from 12-month-old (aged) female mice returned to an ad-libitum (AL) diet for 1 month following 7.5 months of dietary CR (CR-AL-fed) initiated in a stepwise fashion at 3.5 months of age were first evaluated. This protocol was based on prior work showing that female mice maintained on CR during adulthood continue to breed and deliver offspring into advanced ages after their return to an AL diet (Selesniemi et al. 2008 Aging Cell 7:622-629). Mice were superovulated by injection of pregnant mare serum gonadotropin (PMSG, 10 IU; Sigma Aldrich Corporation, St. Louis, Mo., USA) followed by human chorionic gonadotropin (hCG, 10 IU; Sigma Aldrich Corporation, St. Louis, Mo., USA) 46-48 hours later. Oocytes were collected from oviducts 15-16 hours after hCG injection, denuded of cumulus cells using hyaluronidase (Irvine Scientific, Santa Ana, Calif., USA), washed with human tubal fluid (HTF; Irvine Scientific, Santa Ana, Calif., USA) supplemented with BSA (fraction V, fatty acid-free; Sigma Aldrich Corporation, St. Louis, Mo., USA), and classified as MII (first polar body in perivitelline space), maturation arrested (germinal vesicle breakdown with no polar body extrusion, or germinal vesicle intact), or degenerated.
(§1) Female mice (8 months old, strain C57BL/6) were maintained on a 12:12 light dark cycle and provided ad-libitum access to water and food. Conditions within rooms were maintained at 21°±1° C. with 50%±20% relative humidity. Mice were placed on the experimental diets at 8.5 months of age and were maintained for 3 months on the diets. All diets were custom made, ordered from Research Diets: OpenStandard Diet (20 kcal % Protein, 15 kcal % Fat and 65 kcal % Carbohydrate) and the experimental groups consisted of regular OpenStandard Diet, OpenStandard Diet+Apigenin at 0.5 g/kg of body weight, OpenStandard Diet+Luteolin at 0.5 g/kg, and OpenStandard Diet+SRT-1720 at 2 g/kg. Food intake was measured weekly and average weight gain was assessed every two weeks. Each experimental group consisted of 12 randomly allocated mice. When mice were euthanized an additional group of 3-month old C57BL/6 females (3 M) were used as positive controls. In all groups, oocyte numbers were assessed following hormonal stimulation for superovulation.
Because of the extremely low yield of oocytes from the aged control females, historical data for oocyte yield from 12-month-old C57BL/6 females (referred to as “Hist 12 M”; from Selesniemi et al., Proc Natl Acad Sci USA. 2011 July 26; 108(30): 12319-12324) can be used as an additional reference point for an aged control group.
In FIG. 45A, the percentage of oocytes assessed at metaphase II is shown. In FIG. 45B, the percentage of oocytes arrested at the germinal vesicle (immature) stage is shown. In FIG. 45C, the percentage of atretic (dead) oocytes is shown.

[2] = tested on: oocytes of aged female mice (C57BL/6); experiment: Dietary supplementation of aged female mice: mitochondrial distribution in oocytes; format: in vivo; conditions: for percentage of oocytes exhibiting abnormal mitochondrial clustering (change): compared to Hist 12 M; for abnormal mitochondrial distribution, present in % of oocytes: diet for 3 months, apigenin 0.5 g/kg, luteolin 0.5 g/kg, SRT-1720 2 g/kg
Method: Whether mitochondrial aggregation, which has been linked to the decline in oocyte quality with advancing age (Tarín et al. Biol Reprod 2001 65:141-150), was affected by caloric intake was assessed. Oocytes were denuded of cumulus cells, incubated in MitoTracker Red CMRox (Life Technologies), and processed for microscopic analysis. Levels of ATP in individual MII oocytes were determined using a commercially available bioluminescent assay kit under the manufacturer's specifications (Sigma Aldrich Corporation, St. Louis, Mo., USA).
as §1
Methods for determining spindle abnormalities and chromosomal misalignment are described above in Example 8. Abnormal mitochondrial distribution was determined to be present in 16.13% of oocytes from 3 M mice, 46% of oocytes from Hist 12 M mice, 7.7% of oocytes following supplementation with apigenenin, 12% of oocytes following supplementation with luteolin and 6.9% of oocytes following supplementation with SRT-1720. Spindle abnormalities were determined to be present in 18.3% of oocytes in 3 M mice, 60% of oocytes in Hist 12 M mice, 32% of oocytes following supplementation with apigenenin, 32% of oocytes following supplementation with luteolin and 32.8% of oocytes following supplementation with SRT-1720. Chromosomal misalignment was determined to be present 18.3% of oocytes in 3 M mice, 62% of oocytes in Hist 12 M mice, 44% of oocytes from mice supplemented with apigenenin, 40% of oocytes following supplementation with luteolin and 40.9% of oocytes following supplementation with SRT-1720.

[3] = tested on: Mouse OSCs; experiment: NAD+ and NADH levels in mouse OSCs treated with mitochondrial enhancers; format: cell-based; conditions: 24 hours
Method: FIG. 35 depicts levels of NAD+ (A) and NADH (B) in OSCs treated with mitochondrial enhancers. Mouse OSCs maintained in culture (Zou et al., Nat Cell Biol 2009 11:631-636) were exposed to the indicated test compounds for 24 hours and then assessed for levels of NAD+ and NADH. Female infertility due to chemotherapy, aging and premature ovarian failure (POF) is due in part to a decline in mitochondrial function in oocytes and OSCs. Accordingly, OSCs from mice were used to screen for small compounds that enhance mitochondrial function (“bioenergetic status”) in female germline cells. Assays for enhancing mitochondrial function included mtDNA content, ATP, NAD+/NADH, mitochondrial mass, mitochondrial membrane potential, and gene expression of known mitochondrial mass regulators and electron transport chain components. All the compounds were dissolved in DMSO. For screening purposes the cells were treated with the vehicle (0.001% DMSO) or with 25 or 50 μM of each compound (except for berberine, which the concentrations used for the screen were 5 μM and 25 μM) for 24 hours. For validation of the top 6 hits, cells were treated with vehicle (0.001% DMSO) or either 5 or 25 μM of each compound for 24 hours. For the gene expression profile, the cells were treated with the concentration that was considered to work better in the previous validation assays.

Row | Compound | percentage of mature, metaphase II oocytes retrieved following superovulation [1] | quality of oocytes in aged mice [1] | oocyte yield [1] | percentage of oocytes exhibiting abnormal mitochondrial clustering (change) [2] | abnormal mitochondrial distribution, present in % of oocytes [2] | NAD^+ levels [3]
1 | O=C(Nc1ccccc1-c1cn2c(CN3CCNCC3)csc2n1)c1cnc2ccccc2n1 [SRT-1720, N-[2[3-(piperazin-1-ylmethyl)imidazo[2,1-b][1,3]thiazol-6-yl]phenyl]quinoxaline-2-carboxamide] | do not affect | improve the quality of oocytes | increase oocyte yield | reduced | 6.9% | –
2 | O=c1cc(-c2ccc(O)cc2)oc2cc(O)cc(O)c12 [apigenin, 5,7-Dihydroxy-2-(4-hydroxyphenyl)-4H-1-benzopyran-4-one] | do not affect | improve the quality of oocytes | increase oocyte yield | reduced | 7.7% | raise
3 | O=c1cc(-c2ccc(O)c(O)c2)oc2cc(O)cc(O)c12 [luteolin, 2-(3,4-Dihydroxyphenyl)-5,7-dihydroxy-4-chromenone] | do not affect | improve the quality of oocytes | increase oocyte yield | reduced | 12% | raise
